This is an account of results in patent US12434967B2, “Method for preparing a solid material for storing ozone, the material and the uses thereof” (priority 2019, dated 2025).

The conditions of data set [1]: in water under ambient conditions; cited from earlier work.
A short description of data set [2]: ozone release, first test: water added to powder in closed reactor, ozone detector. As to conditions: same conditions, after adding water. In kind it is physicochemical. As to the method:
In the first test, about 1.5 g of ozone storage material in powder form have been placed in a glass cup, which in turn has been placed in a glass reactor of volume 1.4 litres. The reactor can be hermetically closed and has been maintained at ambient temperature (˜20° C.).
A portable ozone detector (model X-an-5000 from Dräger, equipped with an XXS O3 cell specifically for ozone detection, detection limit equal to 0.02 ppm and resolution equal to 0.01 ppm, response time <10 s at 20° C.) has been introduced into the reactor and switched on near the powder cup. The detector thus placed makes it possible to continuously emphasise the presence of ozone in the reactor, from an ozone concentration higher than the detection limit of 0.02 ppm.
Secondly, using a graduated glass pipette, a volume of approximately 3 ml of distilled water has been introduced onto the powder through one of the upper openings of the reactor. The reactor has then been immediately hermetically closed again to monitor the course of the vapour phase composition of the reactor with the detector over time. The dissolution of part of the material (about ⅓ of the initial amount) by this addition of water (as the material is relatively soluble in water), caused a rapid increase in the ozone concentration over time as read on the detector (for example 0.1 ppm measured in 40 s; 0.2 ppm in 100 s). […]

Consider `O=[O+][O-]` [ozone], for which the lifetime result in data set [1] is recorded as “about 20 minutes”.
In the case of “(2-hydroxypropyl)-β-cyclodextrin [native HP-β-CD]”, the “ozone release on the detector” value in data set [2] is “no ozone release was observed”.
